Measurements reported in the CheMixHub ionic liquid set.
± gives the uncertainty stated by the source.

Assay: xn = mol fraction of the nth substance listed
Details: 100 kPa

Cn1cc[n+](CCO)c1.[Cl-] + O
electrical conductivity (293.15 K, x1 = 3.478e-05): 0.0241 ± 0.0077 S/m
electrical conductivity (293.15 K, x1 = 5.784e-05): 0.0382 ± 0.0072 S/m
electrical conductivity (293.15 K, x1 = 9.73e-05): 0.0597 ± 0.0068 S/m
viscosity (293.15 K, x1 = 9.73e-05): 1.015 ± 0.021 mPa·s
electrical conductivity (293.15 K, x1 = 0.0001191): 0.0701 ± 0.0057 S/m
electrical conductivity (293.15 K, x1 = 0.0001798): 0.0949 ± 0.0058 S/m
electrical conductivity (293.15 K, x1 = 0.0002349): 0.117 ± 0.0059 S/m
viscosity (293.15 K, x1 = 0.0002349): 1.023 ± 0.021 mPa·s
electrical conductivity (293.15 K, x1 = 0.0002827): 0.133 ± 0.0057 S/m
viscosity (293.15 K, x1 = 0.0002827): 1.025 ± 0.021 mPa·s
electrical conductivity (293.15 K, x1 = 0.0003387): 0.15 ± 0.0058 S/m
electrical conductivity (293.15 K, x1 = 0.0003943): 0.165 ± 0.006 S/m
viscosity (293.15 K, x1 = 0.0003943): 1.029 ± 0.021 mPa·s
viscosity (293.15 K, x1 = 0.000458): 1.032 ± 0.021 mPa·s
viscosity (293.15 K, x1 = 0.0005686): 1.036 ± 0.022 mPa·s
viscosity (293.15 K, x1 = 0.0007379): 1.041 ± 0.022 mPa·s
viscosity (293.15 K, x1 = 0.0009513): 1.048 ± 0.022 mPa·s
viscosity (293.15 K, x1 = 0.001272): 1.056 ± 0.022 mPa·s
viscosity (293.15 K, x1 = 0.001562): 1.063 ± 0.022 mPa·s
electrical conductivity (298.15 K, x1 = 3.478e-05): 0.0281 ± 0.0089 S/m
electrical conductivity (298.15 K, x1 = 5.784e-05): 0.0443 ± 0.0084 S/m
electrical conductivity (298.15 K, x1 = 9.73e-05): 0.0693 ± 0.0081 S/m
viscosity (298.15 K, x1 = 9.73e-05): 0.904 ± 0.019 mPa·s
electrical conductivity (298.15 K, x1 = 0.0001191): 0.082 ± 0.0067 S/m
electrical conductivity (298.15 K, x1 = 0.0001798): 0.111 ± 0.0068 S/m
electrical conductivity (298.15 K, x1 = 0.0002349): 0.136 ± 0.0068 S/m
viscosity (298.15 K, x1 = 0.0002349): 0.912 ± 0.019 mPa·s
electrical conductivity (298.15 K, x1 = 0.0002827): 0.154 ± 0.0065 S/m
viscosity (298.15 K, x1 = 0.0002827): 0.914 ± 0.019 mPa·s
electrical conductivity (298.15 K, x1 = 0.0003387): 0.173 ± 0.0067 S/m
electrical conductivity (298.15 K, x1 = 0.0003943): 0.191 ± 0.0069 S/m
viscosity (298.15 K, x1 = 0.0003943): 0.92 ± 0.019 mPa·s
viscosity (298.15 K, x1 = 0.000458): 0.922 ± 0.019 mPa·s
viscosity (298.15 K, x1 = 0.0005686): 0.926 ± 0.019 mPa·s
viscosity (298.15 K, x1 = 0.0007379): 0.933 ± 0.019 mPa·s
viscosity (298.15 K, x1 = 0.0009513): 0.94 ± 0.02 mPa·s
viscosity (298.15 K, x1 = 0.001272): 0.949 ± 0.02 mPa·s
viscosity (298.15 K, x1 = 0.001562): 0.957 ± 0.02 mPa·s
electrical conductivity (303.15 K, x1 = 3.478e-05): 0.0319 ± 0.0097 S/m
electrical conductivity (303.15 K, x1 = 5.784e-05): 0.0496 ± 0.0093 S/m
electrical conductivity (303.15 K, x1 = 9.73e-05): 0.0776 ± 0.009 S/m
viscosity (303.15 K, x1 = 9.73e-05): 0.815 ± 0.017 mPa·s
electrical conductivity (303.15 K, x1 = 0.0001191): 0.0913 ± 0.0074 S/m
electrical conductivity (303.15 K, x1 = 0.0001798): 0.123 ± 0.0075 S/m
electrical conductivity (303.15 K, x1 = 0.0002349): 0.151 ± 0.0074 S/m
viscosity (303.15 K, x1 = 0.0002349): 0.826 ± 0.017 mPa·s
electrical conductivity (303.15 K, x1 = 0.0002827): 0.171 ± 0.0071 S/m
viscosity (303.15 K, x1 = 0.0002827): 0.829 ± 0.017 mPa·s
electrical conductivity (303.15 K, x1 = 0.0003387): 0.192 ± 0.0076 S/m
electrical conductivity (303.15 K, x1 = 0.0003943): 0.214 ± 0.0077 S/m
viscosity (303.15 K, x1 = 0.0003943): 0.835 ± 0.017 mPa·s
viscosity (303.15 K, x1 = 0.000458): 0.838 ± 0.017 mPa·s
viscosity (303.15 K, x1 = 0.0005686): 0.844 ± 0.018 mPa·s
viscosity (303.15 K, x1 = 0.0007379): 0.851 ± 0.018 mPa·s
viscosity (303.15 K, x1 = 0.0009513): 0.86 ± 0.018 mPa·s
viscosity (303.15 K, x1 = 0.001272): 0.872 ± 0.018 mPa·s
viscosity (303.15 K, x1 = 0.001562): 0.882 ± 0.018 mPa·s
electrical conductivity (308.15 K, x1 = 3.478e-05): 0.036 ± 0.011 S/m
electrical conductivity (308.15 K, x1 = 5.784e-05): 0.056 ± 0.01 S/m
electrical conductivity (308.15 K, x1 = 9.73e-05): 0.0866 ± 0.0097 S/m
viscosity (308.15 K, x1 = 9.73e-05): 0.738 ± 0.015 mPa·s
electrical conductivity (308.15 K, x1 = 0.0001191): 0.1 ± 0.0076 S/m
electrical conductivity (308.15 K, x1 = 0.0001798): 0.133 ± 0.0079 S/m
electrical conductivity (308.15 K, x1 = 0.0002349): 0.163 ± 0.0078 S/m
viscosity (308.15 K, x1 = 0.0002349): 0.75 ± 0.016 mPa·s
electrical conductivity (308.15 K, x1 = 0.0002827): 0.183 ± 0.0078 S/m
viscosity (308.15 K, x1 = 0.0002827): 0.753 ± 0.016 mPa·s
electrical conductivity (308.15 K, x1 = 0.0003387): 0.209 ± 0.0081 S/m
electrical conductivity (308.15 K, x1 = 0.0003943): 0.228 ± 0.0084 S/m
viscosity (308.15 K, x1 = 0.0003943): 0.76 ± 0.016 mPa·s
viscosity (308.15 K, x1 = 0.000458): 0.764 ± 0.016 mPa·s
viscosity (308.15 K, x1 = 0.0005686): 0.77 ± 0.016 mPa·s
viscosity (308.15 K, x1 = 0.0007379): 0.778 ± 0.016 mPa·s
viscosity (308.15 K, x1 = 0.0009513): 0.787 ± 0.016 mPa·s
viscosity (308.15 K, x1 = 0.001272): 0.799 ± 0.017 mPa·s
viscosity (308.15 K, x1 = 0.001562): 0.809 ± 0.017 mPa·s
electrical conductivity (313.15 K, x1 = 3.478e-05): 0.04 ± 0.012 S/m
electrical conductivity (313.15 K, x1 = 5.784e-05): 0.062 ± 0.011 S/m
electrical conductivity (313.15 K, x1 = 9.73e-05): 0.095 ± 0.01 S/m
viscosity (313.15 K, x1 = 9.73e-05): 0.676 ± 0.014 mPa·s
electrical conductivity (313.15 K, x1 = 0.0001191): 0.11 ± 0.0084 S/m
electrical conductivity (313.15 K, x1 = 0.0001798): 0.146 ± 0.0086 S/m
electrical conductivity (313.15 K, x1 = 0.0002349): 0.178 ± 0.0085 S/m
viscosity (313.15 K, x1 = 0.0002349): 0.69 ± 0.014 mPa·s
electrical conductivity (313.15 K, x1 = 0.0002827): 0.2 ± 0.0082 S/m
viscosity (313.15 K, x1 = 0.0002827): 0.694 ± 0.015 mPa·s
electrical conductivity (313.15 K, x1 = 0.0003387): 0.224 ± 0.0087 S/m
electrical conductivity (313.15 K, x1 = 0.0003943): 0.248 ± 0.0092 S/m
viscosity (313.15 K, x1 = 0.0003943): 0.702 ± 0.015 mPa·s
viscosity (313.15 K, x1 = 0.000458): 0.706 ± 0.015 mPa·s
viscosity (313.15 K, x1 = 0.0005686): 0.713 ± 0.015 mPa·s
viscosity (313.15 K, x1 = 0.0007379): 0.722 ± 0.015 mPa·s
viscosity (313.15 K, x1 = 0.0009513): 0.732 ± 0.015 mPa·s
viscosity (313.15 K, x1 = 0.001272): 0.746 ± 0.016 mPa·s
viscosity (313.15 K, x1 = 0.001562): 0.757 ± 0.016 mPa·s
